Patent US9770026B2, “Substituted pyrimidine compound and uses thereof” (Shenyang Sinochem Agrochemicals R&D Co., Ltd., priority 2012, dated 2017)

Columns and labels:
[1] = tested on: cucumber downy mildew; assay: protectant activity in vivo against cucumber downy mildew; conditions: Cucumis sativus, 168 h, protectant activity; for pest or weed control at 25 µg/mL: read-out: control effect against cucumber downy mildew (%), 25 mg/L; for pest or weed control at 50 µg/mL: read-out: control effect against cucumber downy mildew (%), 50 mg/L; for pest or weed control at 100 µg/mL: read-out: control effect against cucumber downy mildew (%), 100 mg/L; for pest or weed control at 400 µg/mL: read-out: control effect against cucumber downy mildew (%), 400 mg/L
[2] = tested on: armyworm; assay: bioactivity test against armyworm, airbrush spray; format: in vivo; conditions: 72 h, 600 mg/L; read-out: Insecticidal activity against armyworm (%)
[3] = tested on: Green peach aphids (Myzus Persicae Sulzer); assay: bioactivity test against green peach aphid, airbrush foliar spray; format: in vivo; conditions: Myzus persicae, foliar, 48 h, contrastive test, read-out: Insecticidal activity against peach aphid (%); for pest or weed control at 10 µg/mL: 10 mg/L; for pest or weed control at 100 µg/mL: 100 mg/L; for pest or weed control at 600 µg/mL: 600 mg/L
Outline: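 Aphids (15-30 per cabbage leaf disc) on moist filter paper were airbrush-sprayed at 10 psi, 0.5 mL, with compound from acetone:methanol (1:1) diluted in water with 0.1% tween 80. Held at 25±1 C, 60±5% RH; survivors counted after 48 hrs to give death rates.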

[4] = tested on: Diamond back moth; assay: insecticidal activity against diamond back moth, airbrush spray; format: in vivo; conditions: 72 h, 600 mg/L
Outline: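 Airbrush leaf-disc spray test: both faces of 2 cm cabbage discs received 0.5 ml of test solution at 0.7 kg/cm^2. Solutions were made in acetone:methanol (1:1) and brought to concentration with 0.1% Tween 80 in water. Ten second-instar larvae per disc, triplicates, were held at 25° C and 60˜70% R.H., with mortality recorded at 72 hrs.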

[5] = tested on: wheat powdery mildew; assay: protectant activity in vivo against wheat powdery mildew; conditions: Triticum aestivum, 168 h, protectant activity; for pest or weed control at 400 µg/mL: read-out: control effect against wheat powdery mildew (%), 400 mg/L; for pest or weed control at 6.25 µg/mL: read-out: control effect against wheat powdery mildew (%), 6.25 mg/L; for pest or weed control at 25 µg/mL: read-out: control effect against wheat powdery mildew (%), 25 mg/L; for pest or weed control at 100 µg/mL: read-out: control effect against wheat powdery mildew (%), 100 mg/L
[6] = tested on: cucumber gray mold; assay: fungicidal activity in vitro (inhibition rate) against cucumber gray mold; format: cell-based; conditions: 25 ppm, in vitro; read-out: inhibition rate against cucumber gray mold
[7] = tested on: corn rust; assay: protectant activity in vivo against corn rust; conditions: Zea mays, 168 h, protectant activity; for pest or weed control at 400 µg/mL: read-out: control effect against corn rust (%), 400 mg/L; for pest or weed control at 6.25 µg/mL: read-out: control effect against corn rust (%), 6.25 mg/L; for pest or weed control at 25 µg/mL: read-out: control effect against corn rust (%), 25 mg/L; for pest or weed control at 100 µg/mL: read-out: control effect against corn rust (%), 100 mg/L
[8] = tested on: carmine spider mite; assay: bioactivity test against carmine spider mite, airbrush spray; format: in vivo; conditions: Tetranychus cinnabarinus, 72 h, 600 mg/L; contrastive test; read-out: Insecticidal activity against carmine spider mite (% )
Outline: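 Broadbean seedlings infested with adult mites were sprayed with compound (acetone/methanol stock diluted in 0.1% Tween 80 water) by airbrush at 0.7 kg/cm^2, 0.5 ml. Three replicates were run. Mortality was scored after 72 hrs.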

Row | Structure (SMILES) | pest or weed control at 25 µg/mL [1] | pest or weed control at 50 µg/mL [1] | pest or weed control at 100 µg/mL [1] | pest or weed control at 400 µg/mL [1] | pest or weed control at 600 µg/mL [2] | pest or weed control at 10 µg/mL [3] | pest or weed control at 100 µg/mL [3] | pest or weed control at 600 µg/mL [3] | pest or weed control at 600 µg/mL [4] | pest or weed control at 400 µg/mL [5] | inhibition at 25 ppm [6] | pest or weed control at 400 µg/mL [7] | pest or weed control at 600 µg/mL [8] | pest or weed control at 6.25 µg/mL [5] | pest or weed control at 25 µg/mL [5] | pest or weed control at 100 µg/mL [5] | pest or weed control at 6.25 µg/mL [7] | pest or weed control at 25 µg/mL [7] | pest or weed control at 100 µg/mL [7]
1 | Cc1nc(Cl)cc(NCCc2ccc(Oc3ccc(C(F)(F)F)cn3)cc2)n1 [CK67, reference compound] | 0% | 20% | 60% | 100% | 0% | 0% | 54% | 86% | 14% | 0% | 0% | 0% | 61% | – | – | – | – | – | –
2 | Cc1nc(Cl)cc(NCCc2ccc(Oc3ncc(C(F)(F)F)cc3Cl)cc2)n1 [CK68, reference compound] | – | – | – | 0% | 0% | – | – | 0% | 14% | 0% | 0% | 0% | 4% | – | – | – | – | – | –
3 | FC(F)(F)c1cnc(Oc2ccc(CCNc3cc(Cl)ncn3)cc2)c(Cl)c1 [CK70, reference compound] | 0% | 30% | 60% | 100% | 0% | 0% | 0% | 81% | 0% | 98% | 0% | 100% | 13% | 0% | 0% | 0% | 0% | 10% | 30%
4 | CCOC(=O)c1ccc(Oc2ccc(CCNc3cc(Cl)ncn3)cc2)nc1 [CK74, reference compound] | – | – | – | 50% | 0% | 26% | 100% | 100% | 0% | 0% | 0% | 100% | 0% | – | – | – | 85% | 90% | 100%
5 | CCOC(=O)c1ccc(Oc2ccc(CCNc3nc(Cl)ncc3Cl)cc2)nc1 [CK75, reference compound] | – | – | – | 60% | 0% | 0% | 0% | 100% | 0% | 0% | 0% | 0% | 0% | – | – | – | – | – | –
6 | CCOC(=O)c1ccc(Oc2ccc(CCNc3cc(Cl)nc(C)n3)cc2)nc1 [CK76, reference compound] | – | – | – | 0% | 0% | – | – | 52% | 0% | 75% | 0% | 70% | 41% | – | – | – | – | – | –
7 | COC(=O)c1ccc(Oc2ccc(CCNc3cc(Cl)ncn3)cc2)nc1 [CK77, reference compound] | – | – | – | 0% | 0% | – | – | 72% | 0% | 100% | 0% | 100% | 56% | 70% | 80% | 100% | 0% | 40% | 60%
